According to patent US11091482B2, “Isoxazolyl-carbonyloxy azabicyclo[3.2.1]octanyl compounds as FXR activators” (ARDELYX, INC., priority 2016, dated 2021):

Legend:
[1] = molecular target: ligand binding domain of human FXR (Homo sapiens (Human), UniProt Q96RI1); test: FXR ligand binding assay (LanthaScreen FRET); settings: for Emax: read-out: % Efficacy; for % Efficacy: extent of activation relative to GW4064;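 for all read-outs here: TR-FRET coactivator recruitment: ligand-induced binding of fluorescein-labelled SRC2-2 peptide to GST-tagged FXR LBD detected via Tb anti-GST antibody, serial compound dilutions, 3-parameter logistic fit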
Method: The affinity of FXR ligands for the ligand binding domain of FXR was determined using a commercially available human FXR ligand binding assay (LanthaScreen, Thermofisher Cat #PV4833). […] Binding of FXR ligands to the FXR ligand binding domain promotes binding of the fluorescein-labelled SRC2-2 peptide. This causes a FRET signal between the terbium-labelled anti-GST antibody and the fluorescein-labelled SRC peptide which are both bound to the FXR ligand binding domain.
Test compounds are dissolved in DMSO and a 3-fold serial dilution series is generated, then further diluted into assay buffer. The compounds are mixed with 5 nM GST-tagged FXR ligand binding domain, 5 nM Tb-labelled anti-GST antibody and 500 nM fluorcscein-labelled SRC2-2 peptide in a pH 7.4 buffer. The reaction is incubated at room temperature for 1 hour, then the FRET signal is measured as the ratio of the 520 nm/495 nm emission following excitation at 340 nm. The change in FRET signal is plotted against the test article concentration and fit to a 3-parameter logistical equation.

[2] = molecular target: human Farnesoid X receptor ligand-binding domain/Gal4 DNA binding domain chimera (Homo sapiens (Human), UniProt Q96RI1); test: Cell-based FXR beta-lactamase reporter assay (FXR-UAS-bla HEK 293T cells); settings: for EC50 / FXR pEC50 / % Efficacy: cellular FXR beta-lactamase reporter assay; for EC50 / FXR pEC50: -log EC50; for EC50: read-out: FXR pEC50 (converted); for Emax: HEK-293T, read-out: % Efficacy; for % Efficacy: extent of activation relative to GW4064
Method: FXR activation was measured using a cell line and procedure obtained from Life Technologies (Cat #K1691). FXR-UAS-bla HEK 293T cells contain a human Farnesoid X receptor ligand-binding domain/Gal4 DNA binding domain chimera stably integrated into the CellSensor® UAS-bla HEK 293T cell line. The CellSensor® UAS-bla HEK 293T contains a beta-lactamase reporter gene under control of a UAS response element stably integrated into HEK 293T cells. Activation of FXR by bound ligands results in transcriptional activation of the beta-lactamase reporter gene, which is detected via assay of beta-lactamase activity. Cells are harvested and diluted into assay medium containing phenol red-free DMEM supplemented with 2% Charcoal-stripped FBS, pyruvate, non-essential amino acids. Cells are then transferred to a 384 well assay plate. Test compounds are dissolved in DMSO and a 3-fold serial dilution series is generated, then further diluted into assay medium. […] A FRET-based […] is loaded into cells as its acetomethoxy ester. Intracellular esterases liberate free CCF4, a cephalosporin core linking 7-hydroxycoumarin to fluorescein. In the presence of beta-lactamase activity produced in the presence of FXR agonists, cleavage of CCF4 spatially separates the two dyes and disrupts FRET, so that exciting the coumarin at 409 nm now produces a blue fluorescence signal at 447 nm. The change in FRET signal is plotted against the test compound concentration and fit to a 3-parameter logistical equation.

[3] = FXR ligand binding assay, -log EC50

human Farnesoid X receptor ligand-binding domain/Gal4 DNA binding domain chimera, sequence (Q96RI1 262-486, stated change not applied): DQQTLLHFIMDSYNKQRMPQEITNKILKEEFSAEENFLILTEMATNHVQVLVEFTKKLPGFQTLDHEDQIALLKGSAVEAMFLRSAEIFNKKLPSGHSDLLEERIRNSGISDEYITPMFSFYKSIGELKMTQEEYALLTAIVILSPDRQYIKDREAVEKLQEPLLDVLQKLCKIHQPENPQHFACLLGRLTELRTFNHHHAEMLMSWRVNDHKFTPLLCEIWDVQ
ligand binding domain of human FXR, sequence (Q96RI1 262-486): as the sequence (Q96RI1 262-486, stated change not applied) above

SMILES	FXR pEC50 [1, 3]	Emax [1]	EC50 [2]	Emax [2]	other results
O=C(OCC(=O)N(CCO)CCO)c1cc(F)c2nc(N3[C@@H]4CC[C@H]3C[C@@H](OC(=O)c3c(-c5c(Cl)cccc5Cl)noc3C3CC3)C4)sc2c1 [Compound I-64, [bis(2-hydroxyethyl)carbamoyl]methyl 2-[(1R,3R,5S)-3-[5-cyclopropyl-3-(2,6-dichlorophenyl)-1,2-oxazole-4-carbonyloxy]-8-azabicyclo[3.2.1]octan-8-yl]-4-fluoro-1,3-benzothiazole-6-carboxylate]	6.6	32%	< 31.6 nM		
O=C(NCCS(=O)(=O)O)c1cc(F)c2nc(N3[C@@H]4CC[C@H]3C[C@@H](OC(=O)c3c(-c5c(Cl)cccc5Cl)noc3C3CC3)C4)sc2c1 [Compound I-5, 2-({2-[(1R,3R,5S)-3-[5-cyclopropyl-3-(2,6-dichlorophenyl)-1,2-oxazole-4-carbonyloxy]-8-azabicyclo[3.2.1]octan-8-yl]-4-fluoro-1,3-benzothiazol-6-yl}formamido)ethane-1-sulfonic Acid]		77%	2510 nM	72%	
O=C(O)c1cc(F)c2nc(N3[C@@H]4CC[C@H]3C[C@@H](OC(=O)c3c(-c5c(Cl)cccc5Cl)noc3C3(F)CC3)C4)sc2c1 [Compound I-27, 2-[(1R,3R,5S)-3-[3-(2,6-dichlorophenyl)-5-(1-fluorocyclopropyl)-1,2-oxazole-4-carbonyloxy]-8-azabicyclo[3.2.1]octan-8-yl]-4-fluoro-1,3-benzothiazole-6-carboxylic Acid]	8.2				% Efficacy ([1]; FXR ligand binding assay): 107%; FXR pEC50 [2]: 8.4; % Efficacy [2]: 108%
O=C(O)c1cc(C(F)(F)F)c2nc(N3[C@@H]4CC[C@H]3C[C@@H](OC(=O)c3c(-c5c(Cl)cccc5Cl)noc3C3CC3)C4)sc2c1 [Compound I-10, 2-[(1R,3R,5S)-3-[5-cyclopropyl-3-(2,6-dichlorophenyl)-1,2-oxazole-4-carbonyloxy]-8-azabicyclo[3.2.1]octan-8-yl]-4-(trifluoromethyl)-1,3-benzothiazole-6-carboxylic Acid]		102%	25.1 nM	104%	
Cc1cc(C(=O)O)cc2sc(N3[C@@H]4CC[C@H]3C[C@@H](OC(=O)c3c(-c5c(Cl)cccc5Cl)noc3C3CC3)C4)nc12 [Compound I-11, 2-[(1R,3R,5S)-3-[5-Cyclopropyl-3-(2,6-dichlorophenyl)-1,2-oxazole-4-carbonyloxy]-8-azabicyclo[3.2.1]octan-8-yl]-4-methyl-1,3-benzothiazole-6-carboxylic Acid]		110%	2.51 nM	121%	
Cc1cc(C(=O)O)cc2sc(N3[C@@H]4CC[C@H]3C[C@@H](OC(=O)c3c(-c5ccccc5C(F)(F)F)noc3C3CC3)C4)nc12 [Compound I-61, 2-[(1R,3R,5S)-3-{5-cyclopropyl-3-[2-(trifluoromethyl)phenyl]-1,2-oxazole-4-carbonyloxy}-8-azabicyclo[3.2.1]octan-8-yl]-4-methyl-1,3-benzothiazole-6-carboxylic Acid]	7.1	139%	10 nM	102%	
COc1cc(C(=O)O)ccc1N1[C@@H]2CC[C@H]1C[C@@H](OC(=O)c1c(-c3c(Cl)cccc3Cl)noc1C1CC1)C2 [Compound I-40, 4-[(1R,3R,5S)-3-[5-cyclopropyl-3-(2,6-dichlorophenyl)-1,2-oxazole-4-carbonyloxy]-8-azabicyclo[3.2.1]octan-8-yl]-3-methoxybenzoic acid]		103%	39.8 nM	117%	EC50 ([1]; FXR ligand binding assay, -log EC50, read-out: FXR pEC50 (converted)): 63.1 nM
COc1cc(C(=O)O)cc2sc(N3[C@@H]4CC[C@H]3C[C@@H](OC(=O)c3c(C56CCC(CC5)CC6)noc3C3CC3)C4)nc12 [Compound I-21, 2-[(1R,3R,5S)-3-(3-{bicyclo[2.2.2]octan-1-yl}-5-cyclopropyl-1,2-oxazole-4-carbonyloxy)-8-azabicyclo[3.2.1]octan-8-yl]-4-methoxy-1,3-benzothiazole-6-carboxylic Acid]				44%	
CCCCCS(=O)(=O)NC(=O)c1ccc(N2[C@@H]3CC[C@H]2C[C@@H](OC(=O)c2c(-c4c(Cl)cccc4Cl)noc2C2CC2)C3)cc1 [Compound I-46, (1R,3R,5S)-8-{4-[(pentane-1-sulfonyl)carbamoyl]phenyl}-8-azabicyclo[3.2.1]octan-3-yl 5-cyclopropyl-3-(2,6-dichlorophenyl)-1,2-oxazole-4-carboxylate]	8.2				FXR pEC50 [2]: 8.5; % Efficacy [2]: 110%
Cn1c(N2[C@@H]3CC[C@H]2C[C@@H](OC(=O)Cc2c(-c4c(Cl)cccc4Cl)noc2C2CC2)C3)nc2c(F)cc(C(=O)O)cc21 [Compound I-33, 2-[(1R,3R,5S)-3-({2-[5-cyclopropyl-3-(2,6-dichlorophenyl)-1,2-oxazol-4-yl]acetyl}oxy)-8-azabicyclo[3.2.1]octan-8-yl]-4-fluoro-1-methyl-1H-1,3-benzodiazole-6-carboxylic Acid]				72%	
CC1(c2onc(-c3c(Cl)cccc3Cl)c2C(=O)OC2C[C@H]3CC[C@@H](C2)N3c2nc3c(F)cc(C(=O)O)cc3s2)CC1 (single isomer, unassigned) [Compound I-26]	7.4				FXR pEC50 [2]: 7.5
O=C(NS(=O)(=O)C1CC1)c1ccc(N2[C@@H]3CC[C@H]2C[C@H](OC(=O)c2c(-c4c(Cl)cccc4Cl)noc2C2CC2)C3)cc1 [Compound I-48, (1R,3S,5S)-8-{4-[(cyclopropanesulfonyl)carbamoyl]phenyl}-8-azabicyclo[3.2.1]octan-3-yl 5-cyclopropyl-3-(2,6-dichlorophenyl)-1,2-oxazole-4-carboxylate]	8.2				% Efficacy ([1]; FXR ligand binding assay): 124%; FXR pEC50 [2]: 8.6; % Efficacy [2]: 130%
COc1cc2nc(N3[C@@H]4CC[C@H]3C[C@@H](OC(=O)c3c(C56CCC(CC5)CC6)noc3C3CC3)C4)sc2cc1C(=O)O [Compound I-22, 2-[(1R,3R,5S)-3-(3-{bicyclo[2.2.2]octan-1-yl}-5-cyclopropyl-1,2-oxazole-4-carbonyloxy)-8-azabicyclo[3.2.1]octan-8-yl]-5-methoxy-1,3-benzothiazole-6-carboxylic Acid]			398 nM	44%	
NC(=O)c1cc(F)c2nc(N3[C@@H]4CC[C@H]3C[C@@H](OC(=O)c3c(-c5c(Cl)cccc5Cl)noc3C3CC3)C4)sc2c1 [Compound I-3, (1R,3R,5S)-8-(6-carbamoyl-4-fluoro-1,3-benzothiazol-2-yl)-8-azabicyclo[3.2.1]octan-3-yl 5-cyclopropyl-3-(2,6-dichlorophenyl)-1,2-oxazole-4-carboxylate]		60%			
O=C(NS(=O)(=O)CCCO)c1ccc(N2[C@@H]3CC[C@H]2C[C@@H](OC(=O)c2c(-c4c(Cl)cccc4Cl)noc2C2CC2)C3)cc1 [Compound I-50, (1R,3R,5S)-8-{4-[(3-hydroxypropanesulfonyl)carbamoyl]phenyl}-8-azabicyclo[3.2.1]octan-3-yl 5-cyclopropyl-3-(2,6-dichlorophenyl)-1,2-oxazole-4-carboxylate]			158 nM	102%	
O=C(O)c1cccc(S(=O)(=O)N2[C@@H]3CC[C@H]2C[C@@H](OC(=O)c2c(-c4c(Cl)cccc4Cl)noc2C2CC2)C3)c1 [Compound I-55, 3-{[(1R,3R,5S)-3-[5-cyclopropyl-3-(2,6-dichlorophenyl)-1,2-oxazole-4-carbonyloxy]-8-azabicyclo[3.2.1]octan-8-yl]sulfonyl}benzoic Acid]			1000 nM	96%	
